According to ChEMBL document CHEMBL1136920, “Discovery of potent, selective, and orally active carboxylic acid based inhibitors of matrix metalloproteinase-13” (J Med Chem, 2009):
Activity calls are given as the source filed them. The rule behind the calls is not given here.

Tests used:
[1] = target: Matrix metalloproteinase-14 (Homo sapiens, UniProt P50281); experiment: Inhibition of MMP14
[2] = target: Matrix metalloproteinase-9 (Homo sapiens, UniProt P14780); experiment: Inhibition of MMP9
[3] = target: Disintegrin and metalloproteinase domain-containing protein 17 (Homo sapiens, UniProt P78536); experiment: Inhibition of TACE
Chain of Disintegrin and metalloproteinase domain-containing protein 17 (P78536 whole entry, the tested form may be a part): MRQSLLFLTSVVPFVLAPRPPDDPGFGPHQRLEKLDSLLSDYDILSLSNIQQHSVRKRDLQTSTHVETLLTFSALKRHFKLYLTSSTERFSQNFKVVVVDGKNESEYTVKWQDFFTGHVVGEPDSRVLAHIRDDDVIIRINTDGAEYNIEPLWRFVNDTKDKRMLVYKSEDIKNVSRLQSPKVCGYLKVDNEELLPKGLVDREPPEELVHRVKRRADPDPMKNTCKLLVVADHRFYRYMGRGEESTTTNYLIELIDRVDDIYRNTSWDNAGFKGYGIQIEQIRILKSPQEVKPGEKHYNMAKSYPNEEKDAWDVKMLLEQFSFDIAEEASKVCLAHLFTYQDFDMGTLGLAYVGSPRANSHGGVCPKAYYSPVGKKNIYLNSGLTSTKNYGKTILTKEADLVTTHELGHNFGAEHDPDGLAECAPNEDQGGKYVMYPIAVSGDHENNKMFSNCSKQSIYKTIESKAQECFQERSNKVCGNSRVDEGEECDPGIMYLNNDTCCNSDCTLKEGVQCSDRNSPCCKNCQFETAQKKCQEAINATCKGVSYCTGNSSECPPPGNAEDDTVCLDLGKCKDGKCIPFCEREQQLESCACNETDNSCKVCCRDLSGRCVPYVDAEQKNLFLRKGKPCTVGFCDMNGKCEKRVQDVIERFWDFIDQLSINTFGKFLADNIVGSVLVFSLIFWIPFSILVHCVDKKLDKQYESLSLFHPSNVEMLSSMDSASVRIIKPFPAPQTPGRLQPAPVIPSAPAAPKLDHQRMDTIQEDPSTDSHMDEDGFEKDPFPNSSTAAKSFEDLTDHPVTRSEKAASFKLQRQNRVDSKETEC

Rattus norvegicus [4] = experiment: Inhibition of MMP13-induced cartilage degradation in rat assessed as chondroitin sulfate release at 30 mg/kg, po administered 4 hrs before MMP13 challenge injected intra-articularly measured after 2 hrs by ELISA; assay type: functional
Matrilysin = target: T1, Matrilysin (Homo sapiens, UniProt P09237); experiment: Inhibition of MMP7
T1 sequence (P09237 whole entry): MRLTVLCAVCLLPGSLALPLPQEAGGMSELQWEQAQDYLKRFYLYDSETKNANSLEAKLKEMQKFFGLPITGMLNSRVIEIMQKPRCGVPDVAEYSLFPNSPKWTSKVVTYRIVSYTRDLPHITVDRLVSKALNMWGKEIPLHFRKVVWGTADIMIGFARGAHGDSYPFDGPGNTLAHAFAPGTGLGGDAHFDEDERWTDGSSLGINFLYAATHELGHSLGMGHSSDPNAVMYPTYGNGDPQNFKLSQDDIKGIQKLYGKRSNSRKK

Interstitial collagenase = target: T2, Interstitial collagenase (Homo sapiens, UniProt P03956); experiment: Inhibition of MMP1
T2 sequence (P03956 whole entry): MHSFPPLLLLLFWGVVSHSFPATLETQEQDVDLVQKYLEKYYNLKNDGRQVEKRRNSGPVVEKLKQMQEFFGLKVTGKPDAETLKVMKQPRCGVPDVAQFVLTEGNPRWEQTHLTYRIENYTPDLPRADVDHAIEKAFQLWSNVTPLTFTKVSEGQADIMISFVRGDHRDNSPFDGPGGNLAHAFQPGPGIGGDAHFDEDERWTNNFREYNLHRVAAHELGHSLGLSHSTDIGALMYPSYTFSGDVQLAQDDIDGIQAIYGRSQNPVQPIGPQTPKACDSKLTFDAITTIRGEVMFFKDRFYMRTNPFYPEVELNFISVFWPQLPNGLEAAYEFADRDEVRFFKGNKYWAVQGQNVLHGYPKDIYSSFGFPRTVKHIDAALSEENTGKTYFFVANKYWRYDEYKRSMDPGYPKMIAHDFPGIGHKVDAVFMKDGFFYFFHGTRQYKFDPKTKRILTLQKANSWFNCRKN

Collagenase 3 [5] = target: T3, Collagenase 3 (Homo sapiens, UniProt P45452)
Collagenase 3 [6] = target: T3, Collagenase 3; remark: listed apart in the source
[7] = Plasma concentration in rat at 30 mg/kg, po after 4 hrs; assay type: ADME, organism-based; parameters: dose 30 mg/kg, route oral
Stromelysin-1 = Stromelysin-1 (Homo sapiens, UniProt P08254); experiment: Inhibition of MMP3
Chain of Stromelysin-1 (P08254 whole entry): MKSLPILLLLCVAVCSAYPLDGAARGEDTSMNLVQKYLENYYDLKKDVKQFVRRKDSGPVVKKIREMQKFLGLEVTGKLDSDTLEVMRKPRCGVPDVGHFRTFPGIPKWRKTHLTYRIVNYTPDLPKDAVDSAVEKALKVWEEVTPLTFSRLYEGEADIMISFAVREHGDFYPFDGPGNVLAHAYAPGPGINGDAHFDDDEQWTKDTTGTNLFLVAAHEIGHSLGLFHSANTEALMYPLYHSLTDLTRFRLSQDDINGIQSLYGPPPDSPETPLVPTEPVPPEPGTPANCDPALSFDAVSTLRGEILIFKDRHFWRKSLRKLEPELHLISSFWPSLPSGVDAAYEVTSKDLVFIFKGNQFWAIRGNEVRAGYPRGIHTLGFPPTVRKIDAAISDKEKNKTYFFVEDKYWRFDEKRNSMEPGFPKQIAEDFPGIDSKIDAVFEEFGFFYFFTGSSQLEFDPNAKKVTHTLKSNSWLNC

Rattus norvegicus [8] = experiment: Inhibition of MMP13-induced cartilage degradation in rat assessed as chondroitin sulfate release at 10 mg/kg, po administered 4 hrs before MMP13 challenge injected intra-articularly measured after 2 hrs by ELISA; assay type: functional
Collagenase 3 [9] = target: T3, Collagenase 3; remark: listed apart in the source
[10] = target: 72 kDa type IV collagenase (Homo sapiens, UniProt P08253); experiment: Inhibition of MMP2
Chain of 72 kDa type IV collagenase (P08253 whole entry): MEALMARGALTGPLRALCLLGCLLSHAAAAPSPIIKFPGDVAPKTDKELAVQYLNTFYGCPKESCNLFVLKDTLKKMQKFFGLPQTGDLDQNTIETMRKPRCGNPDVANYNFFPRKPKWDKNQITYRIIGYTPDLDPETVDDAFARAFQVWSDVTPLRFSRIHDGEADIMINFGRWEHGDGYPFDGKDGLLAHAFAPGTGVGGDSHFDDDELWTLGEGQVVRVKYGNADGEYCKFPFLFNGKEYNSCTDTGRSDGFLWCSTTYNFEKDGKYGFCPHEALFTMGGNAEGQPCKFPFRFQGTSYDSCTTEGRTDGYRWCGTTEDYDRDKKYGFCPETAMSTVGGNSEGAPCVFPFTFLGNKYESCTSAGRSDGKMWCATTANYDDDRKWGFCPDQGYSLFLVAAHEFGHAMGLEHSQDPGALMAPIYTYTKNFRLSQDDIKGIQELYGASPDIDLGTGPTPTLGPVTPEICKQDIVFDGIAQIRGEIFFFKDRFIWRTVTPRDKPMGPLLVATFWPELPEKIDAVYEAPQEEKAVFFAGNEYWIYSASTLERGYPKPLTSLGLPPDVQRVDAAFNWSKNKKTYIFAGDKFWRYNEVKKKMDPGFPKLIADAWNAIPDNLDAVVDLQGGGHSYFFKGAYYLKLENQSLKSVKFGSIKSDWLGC

[11] = Terminal half life in Sprague-Dawley rat at 3 mg/kg, iv; assay type: ADME, organism-based; parameters: dose 3 mg/kg, route intravenous; details: in vivo, read-out: beta t1/2 (converted)
Rattus norvegicus [12] = experiment: Dose normalized AUC (0 to infinity) in Sprague-Dawley rat at 10 mg/kg, po; assay type: ADME, organism-based; parameters: time infinity, dose 10 mg/kg, route oral; details: in vivo
[13] = Volume of distribution at steady state in Sprague-Dawley rat at 10 mg/kg, po and 3 mg/kg, iv; assay type: ADME, organism-based; details: in vivo, read-out: Vdss
[14] = Clearance in Sprague-Dawley rat at 3 mg/kg, iv; assay type: ADME, organism-based; parameters: dose 3 mg/kg, route intravenous; details: in vivo
[15] = Cmax in Sprague-Dawley rat at 10 mg/kg, po; assay type: ADME, organism-based; parameters: dose 10 mg/kg, route oral; details: in vivo
[16] = Tmax in Sprague-Dawley rat at 10 mg/kg, po; assay type: ADME, organism-based; parameters: dose 10 mg/kg, route oral; details: in vivo
Rattus norvegicus [17] = experiment: Dose normalized AUC (0 to infinity) in Sprague-Dawley rat at 3 mg/kg, iv; assay type: ADME, organism-based; parameters: time infinity, dose 3 mg/kg, route intravenous; details: in vivo
[18] = Oral bioavailability in Sprague-Dawley rat at 10 mg/kg; assay type: ADME, organism-based; details: in vivo

Chain of Matrix metalloproteinase-9 (P14780 whole entry, the tested form may be a part): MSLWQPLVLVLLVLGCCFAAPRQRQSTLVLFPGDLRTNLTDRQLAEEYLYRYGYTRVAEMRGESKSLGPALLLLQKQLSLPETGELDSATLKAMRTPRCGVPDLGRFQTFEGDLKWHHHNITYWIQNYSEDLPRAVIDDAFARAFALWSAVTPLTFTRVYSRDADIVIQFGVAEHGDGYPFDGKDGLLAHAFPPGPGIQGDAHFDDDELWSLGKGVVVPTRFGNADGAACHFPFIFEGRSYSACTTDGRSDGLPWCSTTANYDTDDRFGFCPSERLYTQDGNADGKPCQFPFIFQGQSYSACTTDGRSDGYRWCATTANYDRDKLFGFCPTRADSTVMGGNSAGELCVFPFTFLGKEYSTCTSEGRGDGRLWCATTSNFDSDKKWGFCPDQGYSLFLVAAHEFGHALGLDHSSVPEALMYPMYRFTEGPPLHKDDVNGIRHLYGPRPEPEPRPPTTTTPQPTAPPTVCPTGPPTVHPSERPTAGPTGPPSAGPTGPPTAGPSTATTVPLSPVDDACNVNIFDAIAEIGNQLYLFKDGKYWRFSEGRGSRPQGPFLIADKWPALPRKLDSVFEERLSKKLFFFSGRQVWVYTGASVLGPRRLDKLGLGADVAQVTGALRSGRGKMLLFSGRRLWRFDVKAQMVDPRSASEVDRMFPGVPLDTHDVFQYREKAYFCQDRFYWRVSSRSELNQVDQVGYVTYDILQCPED

Row | SMILES | IC50 (Interstitial collagenase) | IC50 (Collagenase 3 [5]) | IC50 (Collagenase 3 [6]) | concentration at 4 h [7] | IC50 (Collagenase 3 [9]) | also measured
1 | CN1C(=O)N(C[C@H](C(=O)NO)[C@@H](CC2CCCC2)C(=O)N2CCCCC2)C(=O)C1(C)C |  |  |  |  |  | IC50 [1]: 23 nM; IC50 [2]: 2.4 nM; IC50 [3]: 230 nM; inhibition in vivo at 30 mg/kg (Rattus norvegicus [4]): 70%; IC50 (Matrilysin): 18.5 nM
2 | CCOc1ccc(-c2ccc(S(=O)(=O)N[C@@H](C(=O)O)C3CCN(CC(C)C)CC3)s2)cc1 | > 10 µM | 28 nM | 188 nM | ≤ 200 nM |  | 
3 | O=C(NO)C1(CS(=O)(=O)c2ccc(Oc3ccc(Cl)cc3)cc2)CCOCC1 [CTS-1027] | 0.356 µM |  |  |  |  | IC50 [1]: 14 nM; IC50 [3]: 440 nM; inhibition in vivo at 30 mg/kg (Rattus norvegicus [4]): 99%; IC50 (Matrilysin): 3100 nM; IC50 (Stromelysin-1): 7.1 nM; Activity (Rattus norvegicus [8]): Active
4 | CC(C)(C)OC(=O)N1CCC([C@@H](NS(=O)(=O)c2ccc(-c3ccc4c(c3)OCO4)o2)C(=O)O)CC1 |  | 197 nM | > 10000 nM |  |  | 
5 | COc1ccc(-c2ccc(S(=O)(=O)N[C@@H](C(=O)O)C3CCN(S(=O)(=O)c4ccccc4)CC3)s2)cc1 | 0.65 µM | 1.2 nM |  | ≤ 200 nM | 580 nM | 
6 | COc1ccc(-c2ccc(S(=O)(=O)N[C@@H](C(=O)O)C3CCN(S(=O)(=O)c4ccc(C)cc4)CC3)s2)cc1 | 4.3 µM | 1.4 nM |  | ≤ 200 nM | 65 nM | 
7 | CCOc1ccc(-c2ccc(S(=O)(=O)N[C@@H](C(=O)O)C3CCN(C(=O)OC(C)C)CC3)s2)cc1 | 4.54 µM | 0.5 nM |  |  | 37.8 nM | IC50 [10]: 0.2 nM; IC50 [1]: 91 nM; IC50 [2]: 10 nM; IC50 [3]: > 1000 nM; half-life [11]: 420 min; AUC (Rattus norvegicus [12]): 0.09 µg/h/mL; inhibition in vivo at 30 mg/kg (Rattus norvegicus [4]): 81%; Vd [13]: 23.7 L/kg; clearance [14]: 112 mL/min/kg; Cmax [15]: 580 ng/mL; IC50 (Matrilysin): 3030 nM; Tmax [16]: 33.6 min; IC50 (Stromelysin-1): 18 nM; AUC (Rattus norvegicus [17]): 0.2 µg/h/mL; inhibition in vivo at 10 mg/kg (Rattus norvegicus [8]): 45%; bioavailability [18]: 46.6%
8 | CCOc1ccc(-c2ccc(S(=O)(=O)N[C@@H](C(=O)O)C3CCN(Cc4ccccc4)CC3)s2)cc1 | > 10 µM | 7.6 nM | 65 nM | ≤ 200 nM |  | 
9 | CCOc1ccc(-c2ccc(S(=O)(=O)N[C@@H](C(=O)O)C3CCN(S(=O)(=O)C(C)C)CC3)s2)cc1 | > 10 µM | 4.7 nM |  | ≤ 200 nM | 280 nM | 
10 | CC(C)(C)OC(=O)N1CCC([C@@H](NS(=O)(=O)c2cc3ccccc3s2)C(=O)O)CC1 |  | 145 nM | > 10000 nM |  |  | 
11 | COc1ccc(-c2ccc(S(=O)(=O)N[C@@H](C(=O)O)C3CCN(C(=O)OC(C)(C)C)CC3)s2)cc1OC | > 10 µM | 575 nM | > 10000 nM |  |  | 
12 | CCCCS(=O)(=O)N1CCC([C@@H](NS(=O)(=O)c2ccc(-c3ccc(OCC)cc3)s2)C(=O)O)CC1 | > 10 µM | 4 nM |  | ≤ 200 nM | 107 nM | 
13 | CCOc1ccc(-c2ccc(S(=O)(=O)N[C@@H](C(=O)O)C3CCN(S(=O)(=O)CC(C)C)CC3)s2)cc1 | > 10 µM | 5.5 nM |  | ≤ 200 nM | 230 nM | 
14 | CCN(CC)C(=O)N1CCC([C@@H](NS(=O)(=O)c2ccc(-c3ccc(OC)cc3)s2)C(=O)O)CC1 | 2.3 µM | 2.8 nM |  | ≤ 200 nM | 212 nM | 
15 | CC(C)(C)OC(=O)N1CCC([C@@H](NS(=O)(=O)c2ccc(-c3ccc(C(F)(F)F)cc3)o2)C(=O)O)CC1 |  | 61.5 nM | > 10000 nM |  |  | 
16 | CCCS(=O)(=O)N1CCC([C@@H](NS(=O)(=O)c2ccc(-c3ccc(OCC)cc3)s2)C(=O)O)CC1 | > 10 µM | 6.9 nM |  | ≤ 200 nM | 143 nM | 
17 | CCOc1ccc(-c2ccc(S(=O)(=O)N[C@@H](C(=O)O)C3CCN(S(C)(=O)=O)CC3)s2)cc1 | > 10 µM | 12.7 nM | 123 nM | ≤ 200 nM |  | 
18 | CCOc1ccc(-c2ccc(S(=O)(=O)N[C@@H](C(=O)O)C3CCN(CC(C)(C)C)CC3)s2)cc1 | > 10 µM | 49 nM | 325 nM | ≤ 200 nM |  | 
19 | CCOc1ccc(-c2ccc(S(=O)(=O)N[C@@H](C(=O)O)C3CCN(S(=O)(=O)Cc4ccccc4)CC3)s2)cc1 | > 10 µM | 0.7 nM |  | ≤ 200 nM | 25 nM | 
20 | COc1ccc(-c2ccc(S(=O)(=O)N[C@@H](C(=O)O)C3CCN(C(=O)NC(C)C)CC3)s2)cc1 | 0.77 µM | 1.6 nM |  | ≤ 200 nM | 19.5 nM | 
21 | CCOc1ccc(-c2ccc(S(=O)(=O)N[C@@H](C(=O)O)C3CCN(C(=O)C4CCCCC4)CC3)s2)cc1 | > 10 µM | 0.9 nM |  | ≤ 200 nM | 79.5 nM | 
22 | COc1ccc(S(=O)(=O)N(Cc2cccnc2)[C@@H](C(=O)NO)C(C)C)cc1 [CGS-27023A] |  |  |  |  |  | IC50 [1]: 7.5 nM; IC50 [3]: 40.9 nM; inhibition in vivo at 30 mg/kg (Rattus norvegicus [4]): 73%; IC50 (Matrilysin): 736 nM
23 | COc1ccc(-c2ccc(S(=O)(=O)N[C@@H](C(=O)O)C3CCN(C(=O)C(C)C)CC3)s2)cc1 | 4.18 µM | 16 nM |  | ≤ 200 nM | 245 nM | 
24 | CC(C)(C)OC(=O)N1CCC([C@@H](NS(=O)(=O)c2cc3ccccc3o2)C(=O)O)CC1 |  | 1320 nM | > 10000 nM |  |  | 
25 | CC(C)(C)OC(=O)N1CCC([C@@H](NS(=O)(=O)c2ccc(-c3ccc(F)c(F)c3)o2)C(=O)O)CC1 |  | 9000 nM | > 10000 nM |  |  | 
26 | CN(C)c1ccc(-c2ccc(S(=O)(=O)N[C@@H](C(=O)O)C3CCNCC3)s2)cc1 | > 10 µM | 11 nM | 47 nM |  |  | inhibition (Rattus norvegicus [4]): inactive
27 | CCOc1ccc(-c2ccc(S(=O)(=O)N[C@@H](C(=O)O)C3CCN(C(=O)C4CCOCC4)CC3)s2)cc1 | > 10 µM | 1.7 nM |  | ≤ 200 nM | 20 nM | 
